From ChEMBL document CHEMBL4630901 (2021)

Columns and labels:
[1] = target: T1, GABA-A receptor; anion channel (Rattus norvegicus) (UniProt O09028+P15431+P18506+P18508+P19969+P20236+P23574+P23576+P28471+P28473+P30191+P62813+P63079+P63138+Q91ZM7+Q9ES14); settings: Compound concentration 10.0 uM
[2] = target: Cannabinoid receptor 2 (Homo sapiens) (UniProt P34972); settings: Compound concentration 10.0 uM
[3] = target: Glutamate receptor ionotropic, kainate (Rattus norvegicus) (UniProt P22756+Q01812+P42260+P42264+Q63273); test: Inhibition of Glutamate, Kainate at 10 µM in the Eurofins-Panlabs radioligand binding assay (Eurofins_assay_232700); settings: Compound concentration 10.0 uM
[4] = target: T2, Alpha-2C adrenergic receptor (Homo sapiens) (UniProt P18825); settings: Compound concentration 10.0 uM
T2 sequence (whole entry): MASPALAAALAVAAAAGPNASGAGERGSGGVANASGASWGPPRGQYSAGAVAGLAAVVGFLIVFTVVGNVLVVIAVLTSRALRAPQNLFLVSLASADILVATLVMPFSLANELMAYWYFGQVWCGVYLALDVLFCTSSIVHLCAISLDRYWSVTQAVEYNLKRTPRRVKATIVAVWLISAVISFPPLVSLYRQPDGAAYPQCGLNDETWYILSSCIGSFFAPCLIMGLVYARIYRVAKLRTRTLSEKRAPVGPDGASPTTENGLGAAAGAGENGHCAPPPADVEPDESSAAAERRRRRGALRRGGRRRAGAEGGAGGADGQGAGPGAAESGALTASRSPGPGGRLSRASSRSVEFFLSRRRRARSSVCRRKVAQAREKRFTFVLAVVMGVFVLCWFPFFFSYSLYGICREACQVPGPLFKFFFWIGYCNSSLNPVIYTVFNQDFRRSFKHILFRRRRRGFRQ

[5] = target: T1, GABA-A receptor; anion channel (Rattus norvegicus); settings: Compound concentration 10.0 uM; remark: listed apart in the source
[6] = target: Delta-type opioid receptor (Homo sapiens) (UniProt P41143); settings: Compound concentration 10.0 uM
[7] = target: Insulin receptor (Homo sapiens) (UniProt P06213); settings: Rattus norvegicus; Compound concentration 10.0 uM
[8] = target: 5-hydroxytryptamine receptor 2A (Homo sapiens) (UniProt P28223); settings: Compound concentration 10.0 uM
[9] = target: Sodium-dependent serotonin transporter (Homo sapiens) (UniProt P31645); settings: Compound concentration 10.0 uM
[10] = target: Sodium-dependent noradrenaline transporter (Homo sapiens) (UniProt P23975); settings: Compound concentration 10.0 uM
[11] = target: T3, Muscarinic acetylcholine receptor M4 (Homo sapiens) (UniProt P08173); settings: Compound concentration 10.0 uM
T3 sequence (whole entry): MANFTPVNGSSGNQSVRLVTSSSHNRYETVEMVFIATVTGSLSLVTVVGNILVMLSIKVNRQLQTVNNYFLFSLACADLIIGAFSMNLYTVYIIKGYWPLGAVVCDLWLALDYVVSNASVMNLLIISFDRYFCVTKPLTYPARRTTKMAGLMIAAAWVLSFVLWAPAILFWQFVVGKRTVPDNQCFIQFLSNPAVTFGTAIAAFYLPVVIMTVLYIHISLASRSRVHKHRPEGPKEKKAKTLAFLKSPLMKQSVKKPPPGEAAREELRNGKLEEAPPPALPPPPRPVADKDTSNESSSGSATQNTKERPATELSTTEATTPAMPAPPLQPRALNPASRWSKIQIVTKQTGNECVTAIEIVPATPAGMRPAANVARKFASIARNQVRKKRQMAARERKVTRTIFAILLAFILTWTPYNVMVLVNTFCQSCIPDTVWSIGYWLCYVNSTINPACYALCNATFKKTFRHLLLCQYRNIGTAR

[12] = target: T4, Prostaglandin E2 receptor EP1 subtype (Homo sapiens) (UniProt P34995); test: Prostanoid EP1 Eurofins-Panlabs radioligand binding assay; design: ligand concentration 1 nM
T4 sequence (whole entry): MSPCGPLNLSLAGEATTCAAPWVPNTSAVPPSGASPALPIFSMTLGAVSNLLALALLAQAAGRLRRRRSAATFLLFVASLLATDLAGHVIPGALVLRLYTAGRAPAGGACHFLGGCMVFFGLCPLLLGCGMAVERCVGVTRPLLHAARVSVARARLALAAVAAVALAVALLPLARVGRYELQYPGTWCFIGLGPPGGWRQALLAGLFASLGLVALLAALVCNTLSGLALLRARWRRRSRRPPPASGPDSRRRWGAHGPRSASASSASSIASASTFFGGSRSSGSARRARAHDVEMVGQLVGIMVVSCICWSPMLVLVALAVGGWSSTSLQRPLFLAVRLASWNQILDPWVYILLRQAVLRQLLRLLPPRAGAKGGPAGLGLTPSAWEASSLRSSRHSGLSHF

[13] = target: D(1A) dopamine receptor (Homo sapiens) (UniProt P21728); settings: Compound concentration 10.0 uM
[14] = target: Beta-2 adrenergic receptor (Homo sapiens) (UniProt P07550); settings: Compound concentration 10.0 uM
[15] = target: T5, Muscarinic acetylcholine receptor M2 (Homo sapiens) (UniProt P08172); settings: Compound concentration 10.0 uM
T5 sequence (whole entry): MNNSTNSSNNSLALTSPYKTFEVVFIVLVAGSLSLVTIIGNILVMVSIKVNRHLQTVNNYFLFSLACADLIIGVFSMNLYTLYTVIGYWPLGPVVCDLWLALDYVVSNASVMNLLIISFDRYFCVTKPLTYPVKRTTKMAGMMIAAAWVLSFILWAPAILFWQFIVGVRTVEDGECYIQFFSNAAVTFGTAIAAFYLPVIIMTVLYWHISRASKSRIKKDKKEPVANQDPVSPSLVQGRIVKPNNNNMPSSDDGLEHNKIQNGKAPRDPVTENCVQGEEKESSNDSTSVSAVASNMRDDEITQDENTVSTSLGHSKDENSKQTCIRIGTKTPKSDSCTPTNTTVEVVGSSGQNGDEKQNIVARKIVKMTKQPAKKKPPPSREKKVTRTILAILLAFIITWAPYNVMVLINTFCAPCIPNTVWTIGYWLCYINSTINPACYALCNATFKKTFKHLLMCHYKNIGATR

[16] = target: Prostaglandin F2-alpha receptor (Homo sapiens, UniProt P43088); test: Bayer inhouse assay (human)
[17] = target: Sigma intracellular receptor 2 (Homo sapiens, UniProt Q5BJF2); test: GPCRScan assay: inhibition of Sigma 2; design: radioligand conc. used [nm] 5.0, parental cells HEKT
Sequence of Sigma intracellular receptor 2 (Q5BJF2 whole entry): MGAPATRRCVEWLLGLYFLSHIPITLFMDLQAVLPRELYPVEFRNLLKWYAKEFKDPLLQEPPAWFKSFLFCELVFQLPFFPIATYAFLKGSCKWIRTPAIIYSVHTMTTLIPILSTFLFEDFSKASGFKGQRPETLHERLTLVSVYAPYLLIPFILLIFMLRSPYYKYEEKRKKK

Sequence of D(1A) dopamine receptor (Homo sapiens) (P21728 whole entry): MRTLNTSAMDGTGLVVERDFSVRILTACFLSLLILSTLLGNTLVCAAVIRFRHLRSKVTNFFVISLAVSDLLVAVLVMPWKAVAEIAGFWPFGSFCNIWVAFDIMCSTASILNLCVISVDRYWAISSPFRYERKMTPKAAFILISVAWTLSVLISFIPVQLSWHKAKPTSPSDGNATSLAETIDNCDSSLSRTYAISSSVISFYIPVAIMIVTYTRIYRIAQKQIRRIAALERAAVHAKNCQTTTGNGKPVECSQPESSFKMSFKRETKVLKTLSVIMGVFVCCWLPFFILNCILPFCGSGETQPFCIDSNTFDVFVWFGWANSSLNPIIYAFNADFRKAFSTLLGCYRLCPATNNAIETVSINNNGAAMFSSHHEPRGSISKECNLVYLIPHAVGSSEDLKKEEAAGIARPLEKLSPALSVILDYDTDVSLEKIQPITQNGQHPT
Sequence of Delta-type opioid receptor (Homo sapiens) (P41143 whole entry): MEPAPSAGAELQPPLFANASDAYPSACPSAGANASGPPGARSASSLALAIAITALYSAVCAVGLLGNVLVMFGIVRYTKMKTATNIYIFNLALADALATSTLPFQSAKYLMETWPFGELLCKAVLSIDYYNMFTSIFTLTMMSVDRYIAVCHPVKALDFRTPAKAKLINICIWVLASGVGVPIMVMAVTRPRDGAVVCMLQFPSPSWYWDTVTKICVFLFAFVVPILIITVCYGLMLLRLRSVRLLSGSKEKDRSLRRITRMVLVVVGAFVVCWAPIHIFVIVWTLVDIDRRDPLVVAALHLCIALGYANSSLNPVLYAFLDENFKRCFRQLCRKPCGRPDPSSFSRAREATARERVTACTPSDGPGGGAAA
Sequence of Cannabinoid receptor 2 (Homo sapiens) (P34972 whole entry): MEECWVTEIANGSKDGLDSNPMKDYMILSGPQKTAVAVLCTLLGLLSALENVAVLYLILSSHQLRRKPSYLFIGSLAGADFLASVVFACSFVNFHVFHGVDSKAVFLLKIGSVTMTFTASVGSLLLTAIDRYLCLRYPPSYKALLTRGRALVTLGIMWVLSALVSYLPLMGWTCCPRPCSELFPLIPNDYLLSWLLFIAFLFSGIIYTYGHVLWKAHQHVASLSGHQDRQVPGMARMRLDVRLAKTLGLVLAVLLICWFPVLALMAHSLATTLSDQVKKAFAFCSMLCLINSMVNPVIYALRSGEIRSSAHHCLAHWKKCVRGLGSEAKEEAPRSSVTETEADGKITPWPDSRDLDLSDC
Sequence of Insulin receptor (Homo sapiens) (P06213 28-758 limits assumed): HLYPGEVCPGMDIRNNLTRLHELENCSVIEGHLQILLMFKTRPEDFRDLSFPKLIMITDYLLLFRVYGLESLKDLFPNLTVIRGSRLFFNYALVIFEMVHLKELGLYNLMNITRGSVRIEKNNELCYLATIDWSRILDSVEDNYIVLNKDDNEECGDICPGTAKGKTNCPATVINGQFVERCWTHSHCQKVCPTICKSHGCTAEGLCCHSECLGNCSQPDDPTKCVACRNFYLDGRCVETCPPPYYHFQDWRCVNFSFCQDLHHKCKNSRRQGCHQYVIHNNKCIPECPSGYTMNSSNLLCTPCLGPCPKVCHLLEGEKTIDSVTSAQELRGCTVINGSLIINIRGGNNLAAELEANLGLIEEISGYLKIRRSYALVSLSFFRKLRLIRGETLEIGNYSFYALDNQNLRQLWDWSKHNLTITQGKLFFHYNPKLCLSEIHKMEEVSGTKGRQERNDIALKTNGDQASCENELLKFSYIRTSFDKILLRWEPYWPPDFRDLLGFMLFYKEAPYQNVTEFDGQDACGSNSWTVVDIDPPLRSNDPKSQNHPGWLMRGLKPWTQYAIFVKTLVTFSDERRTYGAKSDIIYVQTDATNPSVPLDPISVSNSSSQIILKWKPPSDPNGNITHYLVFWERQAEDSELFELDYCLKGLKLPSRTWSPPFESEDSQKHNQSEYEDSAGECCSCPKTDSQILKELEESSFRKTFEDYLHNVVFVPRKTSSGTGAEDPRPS
Sequence of Insulin receptor (Homo sapiens) (P06213 763-1382 limits assumed): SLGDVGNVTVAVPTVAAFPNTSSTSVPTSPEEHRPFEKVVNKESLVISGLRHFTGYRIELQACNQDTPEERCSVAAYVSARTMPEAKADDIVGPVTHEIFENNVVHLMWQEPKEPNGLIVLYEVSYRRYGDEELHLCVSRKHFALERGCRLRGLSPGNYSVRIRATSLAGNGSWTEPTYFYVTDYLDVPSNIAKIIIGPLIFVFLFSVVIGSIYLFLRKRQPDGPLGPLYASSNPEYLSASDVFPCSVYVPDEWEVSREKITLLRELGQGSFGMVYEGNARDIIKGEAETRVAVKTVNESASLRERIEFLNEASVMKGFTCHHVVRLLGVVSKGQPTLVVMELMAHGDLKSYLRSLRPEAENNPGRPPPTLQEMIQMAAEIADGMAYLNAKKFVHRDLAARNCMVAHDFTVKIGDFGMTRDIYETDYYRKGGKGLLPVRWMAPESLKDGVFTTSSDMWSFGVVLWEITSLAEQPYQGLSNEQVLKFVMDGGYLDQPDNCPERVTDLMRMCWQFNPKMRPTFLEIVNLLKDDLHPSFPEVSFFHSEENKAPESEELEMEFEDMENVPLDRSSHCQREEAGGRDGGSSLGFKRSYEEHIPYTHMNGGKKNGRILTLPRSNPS
Sequence of 5-hydroxytryptamine receptor 2A (Homo sapiens) (P28223 whole entry): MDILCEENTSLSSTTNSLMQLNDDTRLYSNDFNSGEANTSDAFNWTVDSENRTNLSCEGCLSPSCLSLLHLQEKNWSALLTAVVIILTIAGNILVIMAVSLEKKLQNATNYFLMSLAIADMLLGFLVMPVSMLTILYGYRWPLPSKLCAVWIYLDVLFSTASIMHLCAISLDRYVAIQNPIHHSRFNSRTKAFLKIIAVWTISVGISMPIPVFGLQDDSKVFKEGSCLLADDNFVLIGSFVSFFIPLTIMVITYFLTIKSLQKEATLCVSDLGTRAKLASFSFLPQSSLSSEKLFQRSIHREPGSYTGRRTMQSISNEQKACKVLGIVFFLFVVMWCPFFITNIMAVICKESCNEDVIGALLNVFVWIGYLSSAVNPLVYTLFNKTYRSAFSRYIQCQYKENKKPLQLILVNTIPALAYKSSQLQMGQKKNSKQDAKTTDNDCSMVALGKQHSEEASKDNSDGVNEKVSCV
Sequence of Prostaglandin F2-alpha receptor (P43088 whole entry): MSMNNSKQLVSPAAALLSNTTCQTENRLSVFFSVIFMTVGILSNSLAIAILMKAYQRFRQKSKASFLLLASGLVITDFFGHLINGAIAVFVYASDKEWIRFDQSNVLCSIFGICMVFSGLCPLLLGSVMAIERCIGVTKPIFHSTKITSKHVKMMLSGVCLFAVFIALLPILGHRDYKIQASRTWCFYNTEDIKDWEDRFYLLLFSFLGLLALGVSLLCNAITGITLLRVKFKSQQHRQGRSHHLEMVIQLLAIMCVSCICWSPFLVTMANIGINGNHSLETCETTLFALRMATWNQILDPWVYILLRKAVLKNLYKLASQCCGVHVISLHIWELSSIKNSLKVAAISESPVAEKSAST
Sequence of Beta-2 adrenergic receptor (Homo sapiens) (P07550 whole entry, looked up): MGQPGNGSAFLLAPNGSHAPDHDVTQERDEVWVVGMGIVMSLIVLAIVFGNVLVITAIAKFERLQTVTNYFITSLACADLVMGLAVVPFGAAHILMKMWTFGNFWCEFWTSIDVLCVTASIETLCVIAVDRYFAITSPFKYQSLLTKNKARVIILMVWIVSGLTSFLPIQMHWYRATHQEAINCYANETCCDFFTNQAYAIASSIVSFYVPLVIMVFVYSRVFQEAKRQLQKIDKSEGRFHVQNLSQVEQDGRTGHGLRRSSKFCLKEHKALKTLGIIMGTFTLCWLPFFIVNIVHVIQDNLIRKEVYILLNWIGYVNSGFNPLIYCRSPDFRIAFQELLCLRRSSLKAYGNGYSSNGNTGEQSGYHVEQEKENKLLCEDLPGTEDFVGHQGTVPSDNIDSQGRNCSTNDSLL
Sequence of Sodium-dependent noradrenaline transporter (Homo sapiens) (P23975 whole entry): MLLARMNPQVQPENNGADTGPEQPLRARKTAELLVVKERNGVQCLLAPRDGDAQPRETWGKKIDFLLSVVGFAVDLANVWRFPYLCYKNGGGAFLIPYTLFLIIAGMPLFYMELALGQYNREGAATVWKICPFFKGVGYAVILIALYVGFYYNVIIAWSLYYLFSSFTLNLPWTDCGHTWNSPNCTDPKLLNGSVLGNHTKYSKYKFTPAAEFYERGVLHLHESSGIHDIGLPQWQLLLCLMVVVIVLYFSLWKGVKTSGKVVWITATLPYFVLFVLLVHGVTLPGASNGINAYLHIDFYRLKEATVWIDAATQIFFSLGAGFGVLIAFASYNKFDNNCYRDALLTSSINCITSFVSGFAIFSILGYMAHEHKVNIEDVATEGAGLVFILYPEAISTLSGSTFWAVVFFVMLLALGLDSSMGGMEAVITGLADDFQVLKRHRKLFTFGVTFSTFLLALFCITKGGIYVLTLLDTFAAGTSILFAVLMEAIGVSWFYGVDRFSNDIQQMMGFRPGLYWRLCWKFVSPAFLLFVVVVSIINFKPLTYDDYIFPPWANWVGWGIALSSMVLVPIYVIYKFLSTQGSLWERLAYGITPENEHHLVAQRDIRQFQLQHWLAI

Question: With `Cc1c(N2CCCC2)nc2ccc(Br)cc2c1C(=O)NC[C@H](CCC(=O)O)c1ccccc1Cl` [BAY-6672] as the compound, how does the inhibition [1] read?
Answer: The inhibition was 26%.

Question: And the inhibition [2]?
Answer: The inhibition was 13%.

Question: What about the inhibition [3] of the same compound?
Answer: The inhibition was 11%.

Question: And the inhibition [4]?
Answer: Its inhibition is 6%.

Question: What about the inhibition [5] of the same compound?
Answer: The inhibition was 6%.

Question: And the inhibition [6]?
Answer: Its inhibition is 5%.

Question: And the inhibition [7]?
Answer: Its inhibition is 11%.

Question: And the inhibition [8]?
Answer: The inhibition was -7%.

Question: And the inhibition [9]?
Answer: The inhibition was -4%.

Question: And the inhibition [10]?
Answer: The inhibition was 32%.

Question: And the inhibition [11]?
Answer: The inhibition was 6%.

Question: And the inhibition ([12]; Compound concentration 0.001 uM)?
Answer: Its inhibition is 11%.

Question: And the inhibition ([12]; Compound concentration 0.01 uM)?
Answer: Its inhibition is -2%.

Question: What about the inhibition ([12]; Compound concentration 0.1 uM) of the same compound?
Answer: The inhibition was 1%.

Question: What about the inhibition ([12]; Compound concentration 1.0 uM) of the same compound?
Answer: Its inhibition is -5%.

Question: What about the inhibition ([12]; Compound concentration 10.0 uM) of the same compound?
Answer: The inhibition was 22%.

Question: And the inhibition [13]?
Answer: The inhibition was 1%.

Question: And the inhibition [14]?
Answer: Its inhibition is 18%.

Question: What about the inhibition [15] of the same compound?
Answer: The inhibition was 3%.

Question: What does the source list for `Cc1c(N2CCNCC2)nc2ccc(Br)cc2c1C(=O)NC[C@H](CCC(=O)O)c1ccccc1Cl` [BAY-403]?
Answer: IC50 [16]: 1.2 µM (not active); Ki [17]: 1.1 µM
